Results on 33 compounds are retold here after patent publication US6472418B1, “Non-peptide NK1 receptors antagonists” (Warner-Lambert Company, priority 1998, dated 2002).

The structures appear in SMILES notation.

In this assay the target is T1, Human NK1 Receptor (Homo sapiens, UniProt P25103).
T1 construct: endogenous in cells; host or cells: Human lymphoma IM9 cells (whole cells)
T1 sequence (P25103 whole entry): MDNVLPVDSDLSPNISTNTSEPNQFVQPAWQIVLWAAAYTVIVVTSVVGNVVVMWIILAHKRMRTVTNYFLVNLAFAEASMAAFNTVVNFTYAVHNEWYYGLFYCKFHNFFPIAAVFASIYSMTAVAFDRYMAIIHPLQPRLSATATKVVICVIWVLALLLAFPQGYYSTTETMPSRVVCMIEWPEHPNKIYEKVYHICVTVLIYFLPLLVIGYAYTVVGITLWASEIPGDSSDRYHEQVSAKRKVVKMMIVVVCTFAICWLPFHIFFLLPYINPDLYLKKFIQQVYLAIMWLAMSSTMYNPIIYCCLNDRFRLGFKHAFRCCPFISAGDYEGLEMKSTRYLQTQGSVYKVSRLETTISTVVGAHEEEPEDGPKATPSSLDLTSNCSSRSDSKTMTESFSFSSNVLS
Kind of assay: In Vitro Human NK1 Receptor Binding Assay ([125I]Bolton-Hunter substance P displacement, IM9 cells). As to conditions: human NK1 receptor, IM9 cells, [125I]Bolton-Hunter substance P; read-out: IC50 (nM) hNK1. The method, boiled down: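 Test compounds competed with 0.05-0.1 nM [125I]Bolton-Hunter substance P for binding to intact IM9 cells over 50 min at 21° C, pH 7.4 buffer with MnCl2 and peptidase inhibitors. […] [Sar9, Met(O2)11] substance P gave non-specific binding. Bound counts were measured after filtration and fitted iteratively.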
For `CC(Cc1c[nH]c2ccccc12)(NCc1cc2ccccc2o1)C(=O)NCc1cccc(Br)c1` (stereo not drawn) [compound 72, 2-[(Benzofuran-2-ylmethyl)-amino]-N-(3-bromo-benzyl)-3-(1H-indol-3-yl)-2-methyl-propionamide], the concentration for half-maximal inhibition (IC50) is 18 nM.
Take `CC(Cc1c[nH]c2ccccc12)(NCc1cc2ccccc2o1)C(=O)NCC(O)c1ccccc1` (stereo not drawn) [compound 73, 2-[(Benzofuran-2-ylmethyl)-amino]-N-(2-hydroxy-2-phenyl-ethyl)-3-(1H-indol-3-yl)-2-methyl-propionamide]: the IC50 worked out at 1230 nM.
As to `CC(Cc1c[nH]c2ccccc12)(NCc1cc2ccccc2o1)C(=O)NCc1cccc(C(F)(F)F)c1` (stereo not drawn) [compound 74, 2-[(Benzofuran-2-ylmethyl)-amino]-3-(1H-indol-3-yl)-2-methyl-N-(3-trifluoromethyl-benzyl)-propionamide], the IC50 came out at 12 nM.
The value for `CC(Cc1c[nH]c2ccccc12)(NCc1cc2ccccc2o1)C(=O)NC(Cc1ccccc1)c1ccccc1` (stereo not drawn) [compound 75, 2-[(Benzofuran-2-ylmethyl)-amino]-N-(1,2-diphenyl-ethyl)-3-(1H-indol-3-yl)-2-methyl-propionamide] was > 10000 nM.
The value for `CNCCNC(=O)C(C)(Cc1c[nH]c2ccccc12)NCc1cc2ccccc2o1` (stereo not drawn) [compound 76, 2-[(Benzofuran-2-ylmethyl)-amino]-3-(1H-indol-3-yl)-2-methyl-N-(2-methylamino-ethyl)-propionamide] was 3700 nM; that for `CC(Cc1c[nH]c2ccccc12)(NCc1cc2ccccc2o1)C(=O)NCc1cccc(Cl)c1` (stereo not drawn) [compound 77, 2-[(Benzofuran-2-ylmethyl)-amino]-N-(3-chloro-benzyl)-3-(1H-indol-3-yl)-2-methyl-propionamide] was 17 nM; that for `CC(Cc1c[nH]c2ccccc12)(NCc1cc2ccccc2o1)C(=O)NC12CN3CN(CN(C3)C1)C2` (stereo not drawn) [compound 78, 2-[(Benzofuran-2-ylmethyl)-amino]-3-(1H-indol-3-yl)-2-methyl-N-(1,3,5-triaza-tricyclo[3.3.1.1>3,7]-dec-7-yl)-propionamide] was > 10000 nM.
Take `CC(Cc1cccc(C(F)(F)F)c1)NC(=O)C(C)(Cc1c[nH]c2ccccc12)NCc1cc2ccccc2o1` (stereo not drawn) [compound 79, 2-[(Benzofuran-2-ylmethyl)-amino]-3-(1H-indol-3-yl)-2-methyl-N-[1-methyl-2-(3-trifluoromethyl-phenyl)-ethyl]-propionamide]: the IC50 was > 10000 nM.
For the compound `CC(Cc1c[nH]c2ccccc12)(NCc1cc2ccccc2o1)C(=O)NCC(c1ccccc1)c1ccccn1` (stereo not drawn) [compound 80, 2-[(Benzofuran-2-ylmethyl)-amino]-3-(1H-indol-3-yl)-2-methyl-N-(2-phenyl-2-pyridin-2-yl-ethyl)-propionamide], the IC50 is > 10000 nM.
The value for `COC(=O)c1ccc(CNC(=O)C(C)(Cc2c[nH]c3ccccc23)NCc2cc3ccccc3o2)c(OC)c1` (stereo not drawn) [compound 81, 4-{[2-[(Benzofuran-2-ylmethyl)-amino]-3-(1H-indol-3-yl)-2-methyl-propionylamino]-methyl}-3-methoxy-benzoic acid methyl ester] was > 10000 nM; that for `CC(NC(=O)C(C)(Cc1c[nH]c2ccccc12)NCc1cc2ccccc2o1)C(C)(C)C` (stereo not drawn) [compound 82, 2-[(Benzofuran-2-ylmethyl)-amino]-3(1H-indol-3-yl)-2-methyl-N-(1,2,2-trimethyl-propyl)-propionamide] was 1140 nM.
Turning to `CN(C)CCNC(=O)C(C)(Cc1c[nH]c2ccccc12)NCc1cc2ccccc2o1` (stereo not drawn) [compound 83, 2-[(Benzofuran-2-ylmethyl)-amino]-N-(2-dimethylamino-ethyl)-3-(1H-indol-3-yl)-2-methyl-propionamide], the 50% inhibitory concentration (IC50) worked out at 3520 nM.
Consider `CC(Cc1c[nH]c2ccccc12)(NCc1cc2ccccc2o1)C(=O)NCC(CC(=O)O)c1ccc(Cl)cc1` (stereo not drawn) [compound 84, 4-[2-[(Benzofuran-2-ylmethyl)-amino]-3-(1H-indol-3-yl)-2-methyl-propionylamino]-3-(4-chloro-phenyl)-butyric acid], for which the IC50 was > 10000 nM.
Consider `CC(Cc1c[nH]c2ccccc12)(NCc1cc2ccccc2o1)C(=O)NC1NC(=O)c2ccccc21` (stereo not drawn) [compound 85], for which the IC50 is 2440 nM.
Next, `CC(Cc1c[nH]c2ccccc12)(NCc1cc2ccccc2o1)C(=O)NCCN1CCNC1=O` (stereo not drawn) [compound 86, 2-[(Benzofuran-2-ylmethyl)-amino]-3-(1H-indol-3-yl)-2-methyl-N-[2-(2-oxo-imidazolidin-1-yl)-ethyl]-propionamide]: > 10000 nM; `CC(Cc1c[nH]c2ccccc12)(NCc1cc2ccccc2o1)C(=O)NCCCN1CCN(c2ccccn2)CC1` (stereo not drawn) [compound 87, 2-[(Benzofuran-2-ylmethyl)-amino]-3-(1H-indol-3-yl)-2-methyl-N-[3-(4-pyridin-2-yl-piperazin-1-yl)-propyl]-propionamide]: > 10000 nM; `CC1CCCC(C)N1CCCCNC(=O)C(C)(Cc1c[nH]c2ccccc12)NCc1cc2ccccc2o1` (stereo not drawn) [compound 88, 2-[(Benzofuran-2-ylmethyl)-amino]-N-[4-(2,6-dimethyl-piperidin-1-yl)-butyl]-3-(1H-indol-3-yl)-2-methyl-propionamide]: > 10000 nM.
The value for `CC(Cc1c[nH]c2ccccc12)(NCc1cc2ccccc2o1)C(=O)NC1(CN2CCCCC2)CCCCC1` (stereo not drawn) [compound 89, 2-[(Benzofuran-2-ylmethyl)-amino]-3-(1H-indol-3-yl)-2-methyl-N-(1-piperidin-1-ylmethyl-cyclohexyl)-propionamide] was 6740 nM.
With `CC(Cc1c[nH]cn1)NC(=O)C(C)(Cc1c[nH]c2ccccc12)NCc1cc2ccccc2o1` (stereo not drawn) [compound 90, 2-[(Benzofuran-2-ylmethyl)-amino]-N-[2-(1H-imidazol-4-yl)-1-methyl-ethyl]-3-(1H-indol-3-yl)-2-methyl-propionamide], the half-inhibitory concentration (IC50) was > 10000 nM.
Regarding `CC(Cc1c[nH]c2ccccc12)(NCc1cc2ccccc2o1)C(=O)NCCCN1CCCC1=O` (stereo not drawn) [compound 91], the half-maximal inhibitory concentration (IC50) was > 10000 nM.
As to `CC(C)NC(=O)C(C)(Cc1c[nH]c2ccccc12)NCc1cc2ccccc2o1` (stereo not drawn) [compound 92, 2-[(Benzofuran-2-ylmethyl)-amino]-3-(1H-indol-3-yl)-N-isopropyl-2-methyl-propionamide], the half-maximal inhibitory concentration (IC50) came out at 2290 nM.
`CC(CN1CCCC1=O)NC(=O)C(C)(Cc1c[nH]c2ccccc12)NCc1cc2ccccc2o1` (stereo not drawn) [compound 93, 2-[(Benzofuran-2-ylmethyl)-amino]-3-(1H-indol-3-yl)-2-methyl-N-[1-methyl-2-(2-oxo-pyrrolidin-1-yl)-ethyl]-propionamide]: the half-maximal inhibitory concentration (IC50) was > 10000 nM.
With `CC1CCC(C)N1CCCCNC(=O)C(C)(Cc1c[nH]c2ccccc12)NCc1cc2ccccc2o1` (stereo not drawn) [compound 94, 2-[(Benzofuran-2-ylmethyl)-amino]-N-[4-(2,5-dimethyl-pyrrolidin-1-yl)-butyl]-3-(1H-indol-3-yl)-2-methyl-propionamide], the IC50 is > 10000 nM.
As for `CC(Cc1c[nH]c2ccccc12)(NCc1cc2ccccc2o1)C(=O)NCC(=O)c1nc[nH]c1N` (stereo not drawn) [compound 95, N-[2-(5-Amino-1H-imidazol-4-yl)-2-oxo-ethyl]-2-[(benzofuran-2-ylmethyl)-amino]-3-(1H-indol-3-yl)-2-methyl-propionamide], the 50% inhibitory concentration (IC50) is > 10000 nM.
On to `CC(Cc1c[nH]c2ccccc12)(NCc1cc2ccccc2o1)C(=O)NCCN1CCOC1=O` (stereo not drawn) [compound 96, 2-[(Benzofuran-2-ylmethyl)-amino]-3-(1H-indol-3-yl)-2-methyl-N-[2-(2-oxo-oxazolidin-3-yl)-ethyl]-propionamide], for which the half-inhibitory concentration (IC50) is > 10000 nM.
As for `CC(Cc1c[nH]c2ccccc12)(NCc1cc2ccccc2o1)C(=O)NCCc1c[nH]cn1` (stereo not drawn) [compound 97, 2-[(Benzofuran-2-ylmethyl)-amino]-N-[2-(1H-imidazol-4-yl)-ethyl]-3-(1H-indol-3-yl)-2-methyl-propionamide], the IC50 was > 10000 nM.
Turning to `CC(Cc1c[nH]c2ccccc12)(NCc1cc2ccccc2o1)C(=O)NCC(c1ccccc1)c1ccccc1` (stereo not drawn) [compound 98, 2-[(Benzofuran-2-ylmethyl)-amino]-N-(2,2-diphenyl-ethyl)-3-(1H-indol-3-yl)-2-methyl-propionamide], the concentration for half-maximal inhibition (IC50) is > 10000 nM.
For the compound `CC(Cc1c[nH]c2ccccc12)(NCc1cc2ccccc2o1)C(=O)NCCN1CCCC1=O` (stereo not drawn) [compound 99, 2-[(Benzofuran-2-ylmethyl)-amino]-3-(1H-indol-3-yl)-2-methyl-N-[2-(2-oxo-pyrrolidin-1-yl)-ethyl]-propionamide], the IC50 was > 10000 nM.
Turning to `CC(Cc1c[nH]c2ccccc12)(NCc1cc2ccccc2o1)C(=O)NCc1ccc([N+](=O)[O-])o1` (stereo not drawn) [compound 100, 2-[(Benzofuran-2-ylmethyl)-amino]-3-(1H-indol-3-yl)-2-methyl-N-(5-nitro-furan-2-ylmethyl)-propionamide], the IC50 amounted to 390 nM.
Next, `Cc1[nH]cnc1CCNC(=O)C(C)(Cc1c[nH]c2ccccc12)NCc1cc2ccccc2o1` (stereo not drawn) [compound 101, 2-[(Benzofuran-2-ylmethyl)-amino]-3-(1H-indol-3-yl)-2-methyl-N-[2-(5-methyl-1H-imidazol-4-yl)-ethyl]-propionamide]: > 10000 nM.
With `CN(C)c1cccc(C2(CNC(=O)C(C)(Cc3c[nH]c4ccccc34)NCc3cc4ccccc4o3)CCCC2)c1` (stereo not drawn) [compound 102, 2-[(Benzofuran-2-ylmethyl)-amino]-N-[1-(3-dimethylamino-phenyl)-cyclopentylmethyl]-3-(1H-indol-3-yl)-2-methyl-propionamide], the IC50 is > 10000 nM.
Turning to `CC(Cc1c[nH]c2ccccc12)(NCc1cc2ccccc2o1)C(=O)NCc1nc2ccccc2[nH]1` (stereo not drawn) [compound 103, 2-[(Benzofuran-2-ylmethyl)-amino]-N-(1H-benzoimidazol-2-ylmethyl)-3-(1H-indol-3-yl)-2-methyl-propionamide], the half-maximal inhibitory concentration (IC50) is 74 nM.
Next, `CC(Cc1c[nH]c2ccccc12)(NCc1cc2ccccc2o1)C(=O)NCC1(c2ccccc2)OCCO1` (stereo not drawn) [compound 105]: > 10000 nM.
